From patent US12295972B2, “Methods using freeze-dried platelet derivative compositions for restoring hemostasis in a subject” (Cellphire, Inc., priority 2021, dated 2025)
Entries after “also recorded” stand apart in the source; their conditions may differ. Where a SMILES comes first, the peptide text is derived from it. Bridges are numbered along the chain shown (N, C = ends). [ ]: non-standard residue; d: D form. hArg = N=C(N)NCCCC[C@H](N)C(=O)O; Mpa = O=C(O)CCS

Experiments:
platelet rich plasma [1] = assay: T-TAS AR chip (collagen and tissue factor) occlusion, platelet rich plasma; format: cell-based, human
[2] = test system: platelets in platelet-rich plasma (PRP); assay: Transmission light aggregometry of platelets in PRP with antiplatelet agents; format: cell-based, human
Description: Plasma samples with platelet or FDPDs or combination of both are loaded into cuvettes and placed into the aggregometry chambers. The chambers warm the sample and provide constant stirring. The initiation of aggregation can be done by multiple types of […] agents not limited to thrombin, ADP, collagen and any agent know to stimulate platelet aggregation. […] The instrument begins the assay by first recording the light transmission previous to stimulation for 2 minutes. The stimulant of interest is then introduced by the technician and the change in light transmission is recorded overtime. The increase in light transmission corresponds to increase in platelet aggregation.

platelet rich plasma [3] = assay: T-TAS AR chip (collagen and tissue factor) occlusion, platelet rich plasma; format: cell-based, human; details: for occlusion time of ADP stimulated PRP: ADP 2 μM, cangrelor 1 μM (n=4) or ticagrelor 500 ng/mL (n=5)
Description: The effect of cangrelor on platelet occlusion under shear was evaluated by T-TAS®.
Evaluation by T-TAS® using an AR chip. AR chips are characterized by a single channel containing collagen and tissue factor; they can be used to analyze clotting and platelet function.

platelet function = details: in vivo; cited from earlier work
whole blood [4] = assay: T-TAS AR chip occlusion, whole blood; format: cell-based, human; details: 6 μM eptifibatide
From the text: The effect of FDPDs on shortening clotting times while in the presence of eptifibatide was also studied. The ability of FDPDs to recover occlusion times was studied on the T-TAS® system. The T-TAS® system measures occlusion time under shear forces with collagen and thromboplastin stimulation. The whole blood profile of occlusion and AUC on the AR T-TAS® chip lengthened and decreased, respectively, with eptifibatide. Eptifibatide extended the occlusion time of whole blood on the T-TAS® AR Chip in a dose-dependent manner. In this experiment, whole blood occluded at 8 minutes, and the occlusion time was extended to 16 minutes with 6 μM eptifibatide (FIG. 9). FDPDs reversed the inhibitory effect of eptifibatide on thrombus formation. Eptifibatide inhibition of whole blood occlusion on the T-TAS® AR Chip was reversed by the addition of FDPDs at approximately 200,000/μL (N=3). When FDPDs (approximately 200 k/μL) were added to the sample of whole blood inhibited with eptifibatide, the time to occlusion decreased to ‘normal’ at 9 minutes (FIG. 10).
Evaluation by T-TAS® using an AR chip. […]
Occlusion time was measured on the Total […] formation Analysis System (T-TAS®) 01 using AR chips (Collagen and Tissue FactorF stimulant). […] FDPDS were rehydrated, counted (Beckman Coulter AcT Diff 2 Cell Counter), and added to whole blood at the indicated final concentration. […]

pooled normal plasma = assay: Activated clotting time (ACT) in pooled normal plasma with heparin and protamine; format: biochemical, human; details: heparin titration
Description: This experiment assessed how clinical proportions of Heparin and Protamine affect FDPD function. FDPDs were prepared according to the procedure in Example 15. An Activating Clotting Time (ACT) assay was performed to measure time to clot and TGA was performed to measure thrombin generation. An initial Heparin titration run was performed using ACT to find the minimum Heparin dose needed to reach abnormal clot time.
Activated clotting time was measured using pooled normal plasma with heparin (H) and protamine (P) as labeled on the x-axis; ½ P, P, and 3/2 P represent protamine doses of 4, 8, and 12 μg/ml, respectively. FDPDs, (referred to as “Tsomes” in FIG. 40) were added at 10, 25 or 50 K/μl. […] “K” in the legend stands for 10^3 FDPDS. All samples were run in duplicate. N=2. The experiment was repeated on separate days to improve statistical relevance.

thrombin generation = assay: Thrombin generation assay (TGA); format: biochemical, human; details: PPP from patients taking baby aspirin daily; absence of FDPDs
[5] = same 500 mg dose orally; cited from earlier work
whole blood [6] = assay: T-TAS PL chip (collagen only) thrombus formation, whole blood; format: cell-based, human; details: 100 and 500 μM aspirin
From the text: Platelets will aggregate with collagen and arachidonic acid stimulation. […] The PL chip system on the T-TAS® was used to emulate in vitro platelet binding and aggregation due to the exposure of collagen in the vasculature under shear conditions.
PL chips are run similarly to AR chips but this chip is only coated with collagen alone.

[7] = cangrelor 1 μM combined with ADP 10 μM

## CCCCS(=O)(=O)N[C@@H](Cc1ccc(OCCCCC2CCNCC2)cc1)C(=O)O [tirofiban]
Platelet rich plasma [1]; 100 ng/mL tirofiban
  occlusion time of PRP: no occlusion

## CC(C)Cc1ccc(C(C)C(=O)O)cc1 (centres unmarked) [ibuprofen]
[2]; PRP from subject on 800 mg ibuprofen
  aggregation in response to arachidonic acid: lack of aggregation
Platelet rich plasma [1]; addition of ADP
  occlusion of PRP from ibuprofen patient: abolished occlusion
Platelet rich plasma [1]; subject on 800 mg ibuprofen
  occlusion of PRP from ibuprofen patient: demonstrated occlusion

## CSCCNc1nc(SCCC(F)(F)F)nc2c1ncn2[C@@H]1O[C@H](COP(=O)(O)OP(=O)(O)C(Cl)(Cl)P(=O)(O)O)[C@@H](O)[C@H]1O [cangrelor]
[2]; 10 μM ADP, cangrelor 0.5 μM-3.5 μM
  ADP-induced platelet aggregation in PRP: complete inhibition
Platelet rich plasma [3]; 100 ng/mL cangrelor and ADP
  occlusion time of PRP: 26 min
Platelet rich plasma [3]
  occlusion time of ADP stimulated PRP: 28.0 ± 3.0 min
Platelet rich plasma [3]; [7]
  area under the curve (AUC) of PRP: dropped close to zero
  platelet adhesion and occlusion of PRP: essentially eliminated; also recorded: inhibited occlusion essentially completely
Platelet rich plasma [3]; cangrelor alone 1 μM
  area under the curve (AUC) of PRP: little effect
  occlusion / occlusion time of PRP: did not exhibit inhibition; also recorded: little effect

## CCCSc1nc(N[C@@H]2C[C@H]2c2ccc(F)c(F)c2)c2nnn([C@@H]3C[C@H](OCCO)[C@@H](O)[C@H]3O)c2n1 [ticagrelor]
Platelet function
  time until platelet function can return after the last dosage: approximately 72 hours
Platelet rich plasma [3]
  occlusion time of ADP stimulated PRP: 28.0 ± 3.0 min

## N=C(N)NCCCC[C@@H]1NC(=O)CCSSC[C@@H](C(N)=O)NC(=O)[C@@H]2CCCN2C(=O)[C@H](Cc2c[nH]c3ccccc23)NC(=O)[C@H](CC(=O)O)NC(=O)CNC1=O [eptifibatide] ([Mpa][hArg]GDWPC-NH2; disulfide 1-7)
[2]; collagen 10 μg/mL, all eptifibatide concentrations tested
  collagen-induced platelet aggregation in PRP: completely inhibited
Platelet function
  time for bleeding time to return to normal after drug stoppage: ≤ 1 h
Whole blood [4]
  occlusion time of whole blood: 16 min
Platelet rich plasma [1]; 9 μM eptifibatide
  occlusion time of PRP: over 30 minutes

## COC(=O)[C@H](c1ccccc1Cl)N1CCc2sccc2C1 [clopidogrel]
Platelet function
  time until platelet function is returned after stopping infusion: approximately 1 hour

## heparin
Pooled normal plasma
  minimum Heparin dose needed to reach abnormal clot formation: 0.8 U/mL

## CC(=O)Oc1ccccc1C(=O)O [aspirin, acetylsalicylic acid]
[2]; AA 500 ug/mL, aspirin 100-400 μM
  arachidonic acid induced platelet aggregation in PRP: eliminated arachidonic acid induced platelet aggregation entirely
[2]; collagen 10 ug/mL, aspirin 100-400 μM
  collagen stimulated platelet aggregation in PRP: partially inhibited
Thrombin generation
  peak thrombin: about 45 nM
[5]
  peak concentration: 44 µM
Whole blood [6]
  platelet binding and aggregation on collagen under shear: largely limited
Platelet rich plasma [1]; PRP 30K/μL
  occlusion time of PRP: > 30 min
Platelet rich plasma [1]; ex vivo, subject on 81 mg/day of aspirin
  occlusion of PRP taken from an aspirin patient: failed to occlude
